Source: publication PMC3510080, “Identification of Compounds with Anti-Proliferative Activity against Trypanosoma brucei brucei Strain 427 by a Whole Cell Viability Based HTS Campaign” (PLoS Neglected Tropical Diseases, 2012)
Each block holds one molecule with its values, some of them ahead of it.

Experiments:
[1] = tested on: T. cruzi Tulahuen strain C2C4; assay: T. cruzi Tulahuen strain C2C4 β-galactosidase assay; SI versus L6 cells; assay type: cell-based, Trypanosoma cruzi
Procedure: (§1) L6 rat skeletal myoblasts, [29] were purchased from the American Type Culture Collection (ATCC, Rockville, MD, USA; ATCC number CRL 1458). This cell line was used for cytotoxicity testing to calculate an SI against T.b. rhodesiense and screened alongside the T.b. rhodesiense, P. falciparum, T. cruzi and L. donovani assays. L6 were also the host cells for the T. cruzi assay. Assays were performed in 96-well microtiter plates, each well containing 100 µl of RPMI 1640 medium supplemented with 1% L-glutamine (200 mM), 10% FCS, and 4000 L6 cells. Serial drug dilutions of eleven 3-fold dilution steps covering a range from 100 to 0.002 µg/ml were prepared. After 70 hours of incubation the plates were inspected under an inverted microscope to assure growth of the controls and sterile conditions. Ten µl of resazurin solution (resazurin, 12.5 mg in 100 ml double-distilled water) was then added to each well and the plates incubated for another 2 hours. Then the plates were read with a Spectramax Gemini XS microplate fluorometer (Molecular Devices Cooperation, Sunnyvale, CA, USA) using an excitation wavelength of 536 nm and an emission wavelength of 588 nm. Data was analysed using the microplate reader software Softmax Pro (Molecular Devices, USA). Podophyllotoxin was used as a positive control in the assay.
Rat skeletal myoblasts (L6 cells) were seeded in 96-well microtitre plates at 2000 cells/well in 100 µl RPMI 1640 medium with 10% FCS and 2 mM l-glutamine. After 24 hours the medium was removed and replaced by 100 µl per well containing 5000 trypomastigote forms of T. cruzi Tulahuen strain C2C4 containing the β-galactosidase (Lac Z) gene. After 48 hours the medium was removed from the wells and replaced by 100 µl fresh medium with or without a serial drug dilution of eleven 3-fold dilution steps covering a range from 100 to 0.002 µg/ml. After 96 hours of incubation the plates were inspected under an inverted microscope to assure growth of the controls and sterility. Then 50 µl of the substrate, containing chlorophenol red-β-D-galactopyranoside (CPRG) and Nonidet, was added to all wells. A colour reaction developed within 2–6 hours that could be read photometrically at 540 nm. Data were transferred into the graphic programme Softmax Pro (Molecular Devices, USA), which calculated IC50 values. The drug benznidazole was used as a positive standard in this assay.

P. falciparum K1 strain = assay: P. falciparum 3H-hypoxanthine incorporation assay; SI versus L6 cells; assay type: cell-based, Plasmodium falciparum; conditions: Plasmodium falciparum, K1, L6, read-out: Reference Compound Activity P.F (IC50)
Procedure: as §1
Compounds dissolved in DMSO at 10 mg/ml were added to parasite cultures incubated in RPMI 1640 medium without hypoxanthine, supplemented with HEPES (5.94 g/l), NaHCO3 (2.1 g/l), neomycin (100 U/ml), Albumax (5 g/l) and washed human A^+ red blood cells at 2.5% haematocrit (0.3% parasitaemia). Serial drug dilutions of eleven 3-fold dilution steps covering a range from 100 to 0.002 µg/ml were prepared. The 96-well plates were incubated in a humidified atmosphere at 37°C; 4% CO2, 3% O2, 93% N2. After 48 hours, 50 µl of ^3H-hypoxanthine ( = 0.5 µCi) was added to each well of the plate. The plates were incubated for a further 24 hours under the same conditions. The plates were then harvested with a Betaplate cell harvester (Wallac, Zurich, Switzerland), and the red blood cells transferred onto a glass fibre filter then washed with distilled water. The dried filters were inserted into a plastic foil with 10 ml of scintillation fluid, and counted in a Betaplate liquid scintillation counter (Wallac, Zurich, Switzerland). IC50 values were calculated from sigmoidal inhibition curves using Microsoft Excel.

T.b. rhodesiense STIB900 = assay: T. b. rhodesiense STIB900 assay (resazurin); SI versus L6 cells; assay type: cell-based, Trypanosoma brucei rhodesiense
Procedure: as §1
T.b. rhodesiense STIB900 stock was isolated in 1982 from a human patient in Tanzania and after several mouse passages cloned and adapted to axenic culture conditions. Fifty microliters of Minimum Essential Medium (MEM) supplemented with 25 mM HEPES, 1 g/l additional glucose, 1% MEM non-essential amino acids (100×), 0.2 mM 2-mercaptoethanol, 1 mM Na-pyruvate and 15% heat inactivated horse serum was added to each well of a 96-well microtiter plate. Serial drug dilutions of eleven 3-fold dilution steps covering a range from 100 to 0.002 µg/ml were prepared. Four thousand bloodstream form cells of T.b. rhodesiense STIB 900 in 50 µl were added to each well and the plate incubated at 37°C under a 5% CO2 atmosphere for 70 hours. Ten microlitres of resazurin solution (resazurin, 12.5 mg in 100 ml double-distilled water) was then added to each well and incubation continued for a further 2–4 hours. Plates were then read with a Spectramax Gemini XS microplate fluorometer (Molecular Devices, USA) using an excitation wavelength of 536 nm and an emission wavelength of 588 nm. Data was analysed using the microplate reader software Softmax Pro (Molecular Devices, USA). The drug melarsoprol was a positive control against T.b. rhodesiense.

[2] = tested on: L. donovani strain MHOM/ET/67/L82 axenic amastigotes; assay: L. donovani axenic amastigote fluorescence assay; SI versus L6 cells; assay type: cell-based, Leishmania donovani
Procedure: as §1
Amastigotes of L. donovani strain MHOM/ET/67/L82 were grown in axenic culture at 37°C in SM medium at pH 5.4 supplemented with 10% heat-inactivated FCS under an atmosphere of 5% CO2 in air. One hundred µl of culture medium containing 10^5 amastigotes from axenic culture with or without a serial drug dilution were seeded in 96-well microtitre plates. Serial drug dilutions of eleven 3-fold dilution steps covering a range from 100 to 0.002 µg/ml were prepared. After 70 hours of incubation the plates were inspected under an inverted microscope to assure growth of the controls and sterile conditions. Ten µl of resazurin solution (12.5 mg resazurin dissolved in 100 ml distilled water) were then added to each well and the plates incubated for another 2 hours. The plates were then read with a Spectramax Gemini XS microplate fluorometer (Molecular Devices, USA) using an excitation wavelength of 536 nm and an emission wavelength of 588 nm. Data was analysed using the software Softmax Pro (Molecular Devices, USA). Decrease of fluorescence ( = inhibition) was expressed as percentage of the fluorescence of control cultures and plotted against the drug concentrations. From the sigmoidal inhibition curves the IC50 values were calculated. Miltefosine served as a known drug control in this assay.

SMILES: O=C(Cn1ccnc1[N+](=O)[O-])NCc1ccccc1 [Benznidazole, benznidazole, reference compound]
IC50 ([1]; Trypanosoma cruzi, TULAHUEN, L6, positive standard, read-out: Reference Compound Activity T.C (IC50)): 1.68 ± 1.93 µM
Selectivity Index T.C ([1]; relative to L6 cells): >206

IC50 (P. falciparum K1 strain): 0.164 ± 0.0247 µM
SMILES: CCN(CC)CCCC(C)Nc1ccnc2cc(Cl)ccc12 (stereo not shown) [Chloroquine, reference compound]

SMILES: Nc1nc(N)nc(Nc2ccc([As]3SCC(CO)S3)cc2)n1 (stereo not shown) [Melarsoprol, melarsoprol, reference compound]
IC50 (T.b. rhodesiense STIB900; Trypanosoma brucei, L6, read-out: Reference Compound Activity T.R (IC50)): 0.00628 ± 0.00178 µM
Selectivity Index T.R (T.b. rhodesiense STIB900; relative to L6 cells): 2915

IC50 ([2]; Leishmania donovani, L6, known drug control, read-out: Reference Compound Activity L.D (IC50)): 0.365 ± 0.0937 µM
SMILES: CCCCCCCCCCCCCCCCOP(=O)([O-])OCC[N+](C)(C)C [Miltefosine, reference compound]
Selectivity Index L.D ([2]; relative to L6 cells): 392
